Test results taken from paper PMC12669040, “Tumour-specific STING agonist synthesis via a two-component prodrug system” (Nature Chemistry, 2025).
“And” between values parts separate entries of the source, which are not always exact repeats. Equal entries are not always repeated. Where two headings read alike, the source gives them in different places.

Experiments:
serum cytokines = assay: Multiplexed cytokine profiling of sera, MC38 model; assay type: in vivo, C57BL/6 mice; details: sera obtained on Day 9, PBS = 1
Procedure: This study used Luminex xMAP technology for multiplexed quantification of 44 mouse cytokines, chemokines and growth factors. The multiplexing analysis was performed using the Luminex 200 system (Luminex) by Eve Technologies Corp. […] markers were simultaneously measured in the samples using Eve Technologies’ Mouse Cytokine 44-Plex Discovery Assay, which consists of two separate kits, one 32-plex and one 12-plex (MilliporeSigma), following the manufacturer’s protocol. […] The sensitivities of individual analytes are available in the MilliporeSigma MILLIPLEX MAP protocol. […] MC-38 cells were inoculated into the right flank of C57BL/6 mice and treated once tumors reached about 90 mm^3. […] Source data

[1] = parameters: method as in PMID 32820094; details: cited from earlier work
[2] = tested on: STING pathway effectors (pSTING, pTBK1, pIRF3) in THP-1 Lucia ISG cells; assay: Western blots of STING pathway activation; assay type: cell-based, human; details: 5 μM
Procedure: THP-1 Lucia ISG cells were maintained as described above. […] Cells were treated with cycloheximide (50 µg ml^−1) and incubated for 50 min at 37 °C. Treated cells were then combined with the growth medium containing SC2S dimer (5 µM final concentration) to 1 × 10^6 cells ml^−1 and incubated at 37 °C. At each timepoint, a portion (3 ml) of the cell suspension was withdrawn. Withdrawn cells were pelleted (300g, 3 min), washed with PBS (1 ml), pelleted again (300g, 3 min) and resuspended to a density of 1 × 10^7 cells ml^−1 in ice-cold lysis buffer (25 mM Tris pH 7.6, 150 mM NaCl, 1% NP-40, 1% sodium deoxycholate and 0.1% SDS) supplied with protease/phosphatase inhibitor tablets (Pierce A32961) and freshly prepared phenylmethylsulfonyl fluoride (1 mM). Lysates were further disrupted by sonication at low power (5 s × 3 cycles). Sonicated lysates were clarified by centrifugation at 4 °C (13,000g, 5 min). […] Samples were reduced and denatured at 95 °C for 5 min before being separated on a precast polyacrylamide gel (Invitrogen NuPAGE 4–12% Bis-Tris, 20 µg total protein per lane). Protein bands were then transferred to a polyvinylidene difluoride membrane (Invitrogen iBlot2). […]

[3] = LC–MS/MS analysis of in situ SC2S formation (tissue distribution); assay type: in vivo, BALB/c mice; details: for concentration at 4 h / concentration at 2 h / concentration at 1 h: BALB/c, mouse
Procedure: The blood, tumour, lung, kidney, liver and spleen were collected for each mouse. Three mice treated with vehicle were included as control samples. Whole blood samples were centrifuged at 2,000g, 4 °C for 10 min. Supernatant plasma was aspirated into an Eppendorf tube and frozen at −80 °C. Tumour and organ tissues were snap-frozen in liquid nitrogen and stored at −80 °C until further analysis. The plasma samples (10-µl aliquots) were prepared by protein precipitation extraction. The organic layer was evaporated to dryness and reconstituted in a solution equivalent to the initial chromatographic starting conditions. The tissue samples were analysed by homogenization to give a 200 […] concentration. The homogenised tissue samples (10-µl aliquots) were then taken through the same preparation procedure as the plasma samples. All samples were analysed using the PKB Core Facility’s 6500 LC–MS/MS system, in negative ion mode. The chromatography was carried out using a gradient method on a Kinetex EVO C18 column (50 × 2.1 mm). Analysis was conducted in four batches, consisting of calibration standards, quality control samples, blank control samples, internal standard-only samples and study samples. Calibration curves were constructed using linear regression with a 1/x^2 weighting. A calibration range of 1–500 ng ml^−1 (5–2,500 ng g^−1 in tissue) was used. Precision and accuracy were well within the PK/B core facility’s acceptance criteria of ±20%. The LC–MS/MS method was developed and qualified ahead of the sample analysis. The performance of the method met normal Core Facility acceptance criteria for analysis.

THP-1 cells = assay: Dilution limits of N1/E4 combination to activate THP-1 cells (IFN-β ELISA)

SMILES: COc1cc2cc(C(=O)CCC(=O)O)sc2cc1OC [MSA2]
- CCL3 (serum cytokines): 1.442
- CCL4 (serum cytokines): 0.7068
- CCL12 (serum cytokines): 5.215
- CXCL2 (serum cytokines): 1.851
- EPO (serum cytokines): 1.36
- G-CSF (serum cytokines): 2.042
- IFNγ (serum cytokines): 0.4672
- IL-1β (serum cytokines): 1.9772
- IL-3 (serum cytokines): 0.512
- IL-6 (serum cytokines): 4.186
- IL-12p40 (serum cytokines): 0.2035
- IL-12p70 (serum cytokines): 1.442
- IL-15 (serum cytokines): 0.4244
- IL-16 (serum cytokines): 1.895
- IL-17 (serum cytokines): 1.777
- M-CSF (serum cytokines): 0.6463
- TARC (serum cytokines): 1.519
- tumour and plasma concentration after intratumoural injection [1]: its concentration in the tumour decreased rapidly past the 2-h timepoint, and substantial leakage into the plasma occurred

SMILES: COc1cc2sc(C(=O)CCC(=O)O)cc2cc1SCCSc1cc2cc(C(=O)CCC(=O)O)sc2cc1OC [SC2S]
- phosphorylation of major STING pathway proteins [2]: confirmed the phosphorylation of major STING pathway proteins
- Blood Calculated Concentration ([3]; 1h, individual samples): BLQ
- Kidney Calculated Concentration ([3]; 1h, individual samples): BLQ
- Lung Calculated Concentration ([3]; 1h, individual samples): BLQ
- Tumour Calculated Concentration ([3]; 1h, individual samples): 64.6 ng/mL and 323 ng/g and 11.6 ng/mL and 58.1 ng/g and 12.1 ng/mL and 60.6 ng/g
- Blood Calculated Concentration ([3]; 2h, individual samples): BLQ
- Liver Calculated Concentration ([3]; 2h, individual samples): BLQ
- Spleen Calculated Concentration ([3]; 2h, individual samples): BLQ
- Tumour Calculated Concentration ([3]; 2h, individual samples): 17.8 ng/mL and 89.2 ng/g and 62.2 ng/mL and 311 ng/g and 4.45 ng/mL and 22.2 ng/g
- Kidney Calculated Concentration ([3]; 4h, individual samples): BLQ
- Spleen Calculated Concentration ([3]; 4h, individual samples): BLQ
- Tumour Calculated Concentration ([3]; 4h, individual samples): 12.1 ng/mL and 60.4 ng/g and 19.6 ng/mL and 98.2 ng/g and 4.66 ng/mL and 23.3 ng/g
- Kidney Calculated Concentration ([3]; 8h, individual samples): BLQ
- Liver Calculated Concentration ([3]; 8h, individual samples): BLQ
- Spleen Calculated Concentration ([3]; 8h, individual samples): BLQ
- Tumour Calculated Concentration ([3]; 8h, individual samples): BLQ
- Kidney Calculated Concentration ([3]; 24h, individual samples): BLQ
- Spleen Calculated Concentration ([3]; 24h, individual samples): BLQ
- concentration at 4 h ([3]; liver, 4h, read-out: Liver Mean concentration): 9.3 ng/g
- concentration at 4 h ([3]; liver, other: β-GlcA-N1 intraperitoneal (IP) + E4 intratumoral (IT), 4h, individual samples, read-out: Liver Calculated Concentration): 1.86 ng/mL and 9.3 ng/g
- concentration at 2 h ([3]; plasma, 2h, individual samples, read-out: Blood Calculated Concentration): 3.03 ng/mL
- concentration at 2 h ([3]; plasma, 2h, read-out: Blood Mean concentration): 3.03 ng/mL
- concentration at 1 h ([3]; plasma, other: β-GlcA-N1 intraperitoneal (IP) + E4 intratumoral (IT), 1h, individual samples, read-out: Blood Calculated Concentration): 1.29 ng/mL
- concentration at 1 h ([3]; plasma, other: β-GlcA-N1 intraperitoneal (IP) + E4 intratumoral (IT), 1h, read-out: Blood Mean concentration): 1.29 ng/mL
- concentration at 2 h ([3]; tumour, 2h, read-out: Tumour Mean concentration): 141 ng/g
- concentration at 4 h ([3]; tumour, 4h, read-out: Tumour Mean concentration): 60.7 ng/g
- concentration at 1 h ([3]; tumour, other: β-GlcA-N1 intraperitoneal (IP) + E4 intratumoral (IT), 1h, read-out: Tumour Mean concentration): 147 ng/g
- Response from SC2S, OD 450 (THP-1 cells; 0.195312 uM): 0.075
- Response from SC2S, OD 450 (THP-1 cells; 0.390625 uM): 0.634
- Response from SC2S, OD 450 (THP-1 cells; 0.78125 uM): 1.146
- Response from SC2S, OD 450 (THP-1 cells; 1.5625 uM): 2.392
- Response from SC2S, OD 450 (THP-1 cells; 3.125 uM): 2.683
- Response from SC2S, OD 450 (THP-1 cells; 6.25 uM): 2.764
- Response from SC2S, OD 450 (THP-1 cells; 12.5 uM): 2.752
- Response from SC2S, OD 450 (THP-1 cells; 25 uM, defined as 100% activation): 2.757
